Experiments:
recombinant HDAC-1 = molecular target: T1, recombinant HDAC-1 (Homo sapiens, UniProt Q13547); experiment: HDAC biochemical quench assay; conditions: recombinant HDAC-1 purified from HEK 293 cells, 1 uM peptide substrate, 90 min at room temperature
T1 construct: made in house; host or cells: HEK 293 cells
From the text: The function of histone deacetylase (HDAC) is the deacetylation of lysines in e.g. histone H4. A peptide of 17 amino acids derived from histone H4 was labeled with TAMRA at the C-terminus and QSY-7 at the N-terminus and was used as a substrate (TAMRA-first17 aa of histone H4-QSY7). Following deacetylation by HDAC, the enzyme Lys C is able to cleave the peptide after lysine. […] Inhibition of HDAC by compounds results in low signals because Lys C could not cleave the substrate and the quench effect persists.
For dose response curves, 10 concentrations were diluted 1:3 starting at 30 uM. 10 ul compound dilution were put into each well of a 384 well plate. 10 ul HDAC were added (recombinant HDAC-1 purified from HEK 293 cells; enzyme activity has to be assessed for each preparation). 10 ul peptide substrate was added (1 uM final concentration, derived from 1 mM stock solution diluted 1:1000 in test buffer). After 90 min incubation at room temperature, the reaction was stopped by addition of 20 ul test buffer including 3 ug/ml Lys C and 0.075% SDS. After overnight incubation the fluorescence signal of TAMRA was measured (Victor 2 from Wallac, absorption 544 nm, emission 590 nm). The O.D. of DMSO-treated control wells is 100%, the % inhibition of compound treated wells is calculated in relation to 100%. Based on 10 concentrations a IC50 curve is generated by using XL.fit3.
Test buffer used: a mixture of 10 mM Hepes pH8, 10 mM NaCl, 10% Glycerol, 0.005% Triton X100, 0.1 mM EDTA, 0.1 mM TCEP. As plates were used 384 well plates (black, Greiner, 781077).

[1] = system: HT-29 cells (human colon carcinoma cell line); experiment: MTT anti-proliferation assay on HT-29 cells; type: cell-based; conditions: Homo sapiens, 120 h, 384 well plates, 5 days, read-out: IC50 HT29 384
From the text: MTT (3-(4,5-dimethylthiazol-2-yl)-2,5-diphenyl tetrazolium bromide) is widely used for the quantitative determination of cytotoxic effects or in vitro chemosensitivity of tumor cells. The assay is based on the cleavage of the yellow tetrazolium salt (MTT) to purple formazan crystals by metabolic active cells. For details, see Rubinstein, L. V., et al., J. Natl. Cancer Inst. 82 (1990) 1113.
We proceeded as follows: HT-29 cells (human colon carcinoma cell line) were cultivated in RPMI 1640, 2.5% FCS, 2 mM glutamine, 100 u/ml penicillin, 100 ug/ml streptomycin. For the assay the cells were seeded in 384 well plates, 900 cells per well, in the same medium. At the next day, the compounds (dissolved 10 mM in DMSO) were added in various concentrations ranging from 30 uM to 1.5 nM. After 5 days, the MTT assay was done mainly according to the instructions of the manufacturer (Cell proliferation kit I, MTT, from Roche Molecular Biochemicals). In brief: MTT labeling reagent was added to a final concentration of 0.5 mg/ml, added and incubated for 4 hrs at 37° C., 5% CO2. During this incubation time purple formazan crystals are formed. After addition of the solubilization solution (20% SDS in 0.02 M HCl) the plates were incubated overnight at 37° C., 5% CO2. After careful mixing, the plates were measured in Victor 2 (scanning multiwell spectrophotometer, Wallac) at 550 nm.
A decrease in number of living cells results in a decrease in the total metabolic activity in the sample. The decrease directly correlates to the amount of purple color resulting from the solubilization of the purple formazan crystals. Determination of IC50 was done using XL-fit.

T1 sequence (Q13547 whole entry, species assumed): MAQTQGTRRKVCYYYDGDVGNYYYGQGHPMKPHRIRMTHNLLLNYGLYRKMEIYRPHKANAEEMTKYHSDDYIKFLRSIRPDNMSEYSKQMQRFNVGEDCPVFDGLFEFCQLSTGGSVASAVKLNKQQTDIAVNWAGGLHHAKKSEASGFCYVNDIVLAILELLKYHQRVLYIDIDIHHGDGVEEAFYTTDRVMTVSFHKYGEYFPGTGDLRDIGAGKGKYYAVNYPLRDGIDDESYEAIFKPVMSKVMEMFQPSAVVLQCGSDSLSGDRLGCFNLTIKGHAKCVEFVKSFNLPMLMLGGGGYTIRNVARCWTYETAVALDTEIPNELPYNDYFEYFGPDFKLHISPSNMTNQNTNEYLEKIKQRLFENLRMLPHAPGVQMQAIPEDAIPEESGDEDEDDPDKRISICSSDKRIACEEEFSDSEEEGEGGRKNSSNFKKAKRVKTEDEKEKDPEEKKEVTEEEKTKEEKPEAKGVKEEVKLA

IC50 (recombinant HDAC-1) [nM]	IC50 [1] [nM]	SMILES
2.69	350	C[C@H](NC(=O)c1ccc(C(=O)NO)s1)c1ccc(C(F)(F)F)cc1 [Example 10d, (S)-thiophene-2,5-dicarboxylic acid 2-hydroxyamide 5-{[1-(4-trifluoromethyl-phenyl)-ethyl]-amide}]
1.39	580	C[C@H](NC(=O)c1ccc(C(=O)NO)s1)c1ccc(C(C)(C)C)cc1 [Example 10e, (S)-thiophene-2,5-dicarboxylic acid 2-{[1-(4-tert-butyl-phenyl)-ethyl]-amide}5-hydroxyamide]
0.58	40	O=C(NO)c1ccc(C(=O)N[C@@H](Cc2ccccc2)c2ccccc2)s1 [Example 10f, (S)-thiophene-2,5-dicarboxylic acid 2-[(1,2-diphenyl-ethyl)-amide]5-hydroxyamide]

Source: patent US7098241B2, “Thiophene hydroxamic acid derivatives” (Hoffmann-La Roche Inc., priority 2002, dated 2006)
